Consider one substance from US11479563B2, “Biphenyl compound or salt thereof” (TAIHO PHARMACEUTICAL CO., LTD., priority 2017, dated 2022).

For test [1], the system named is NCI-H1417 cells (human small-cell lung cancer cell lines). As to conditions: read-out: Cell-Growth Inhibition Test: NCI-H1417 Cells IC50.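 Also: growth of NCI-H1417 cells over 10 days at 37 °C, read as viable-cell luminescence by CellTiter-Glo 2.0, expressed as % of DMSO-only control wells.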
Test [2] concerns NCI-H146 cells (human small-cell lung cancer cell lines). The test can be described thus: Cell-growth inhibition test: NCI-H146 cells. The class given is cell-based. As to conditions: NCI-H146 cells; read-out: Cell-Growth Inhibition Test: NCI-H146 Cells IC50. In short, it runs like this:
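NCI-H146 small-cell lung cancer cells were cultured with compound or DMSO for 10 days at 37°C, 5% CO2. Viability read by CellTiter-Glo luminescence; growth rate (%) = treated/DMSO luminescence × 100.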

For test [3], the system named is HEL cells (human acute myelocytic leukemia cell lines). The note with it: read-out: Cell-Growth Inhibition Test: HEL Cells IC50.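 Also: viable cell count by CellTiter-Glo 2.0 luminescence after 5 days of culture at 37 °C, growth expressed relative to DMSO-only wells as 100%.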

Consider “3-fluoro-2′-(6-fluoro-1-(2-hydroxy-2-methylpropyl)-1H-indazol-5-yl)-5′-(2,7-diazaspiro[3.4]octane-6-carbonyl)-[1,1′-biphenyl]-4-carbonitrile [Example 199]”, for which the IC50 was found to be 4.55 nM in test [1], 5.45 nM in test [2] and 22 nM in test [3].
